# Experimental data published in patent US11083805B2, “Radiolabeled GRPR-antagonists for diagnostic imaging and treatment of GRPR-positive cancer” (Advanced Accelerator Applications International SA, priority 2012, dated 2021).
# Key:
# malignant lesions = conditions: cited from earlier work
# [1] = test system: human prostate cancer PC-3 xenografts; conditions: cited from earlier work
# [2] = Metabolic study in mice (radiochromatogram of ex-vivo mouse blood); set-up: species or system Swiss albino mice; conditions: mouse blood 5 min after injection
# Description: A bolus containing the radioligand in normal saline (100-150 μL, =3 nmol, 200-500 μCi) was injected in the tail vein of Swiss albino mice. Animals were kept for 5 min in a cage with access to water and were then euthanized promptly by cardiac puncture while under a mild ether anesthesia. Blood (500-900 μL) was collected from the heart with a syringe and transferred in a pre-chilled Eppendorf tube on ice.
# Blood was centrifuged to remove blood cells (10 min, 2000 g/4° C.). The plasma was collected, mixed with acetonitrile (MeCN) in a 1/1 v/v ratio and centrifuged again (10 min, 15000 g/4° C.). Supernatants were concentrated to a small volume (gentle N2-flux at 40° C.), diluted with saline (z 400 μL) and filtered through a Millex GV filter (0.22 μm).
# Aliquots of plasma samples (prepared as described above) were loaded on a Symmetry Shield RPM column which was eluted at a flow rate of 1.0 mL/min with the following gradient: 100% A to 90% A in 10 min and from 90% A to 60% for the next 60 min (A=0.1% aqueous TFA (v/v) and B=MeCN). Elution of radiocomponents was monitored by a gamma detector. For ^99mTc-radiopeptides, ITLC-SG analysis was performed in parallel using acetone as the eluent to detect traces of TcO4^− release (TcO4^− Rf=1.0).
# PC-3 tumors (hGRPR+) = assay: Biodistribution in GRPR+ tumor bearing mice; type: in vivo, female SCID mice; conditions: for uptake in PC-3 tumor: iv, 10 pmol total peptide
# Description: A 150 μL bolus containing a suspension of 1.5×10^7 freshly harvested human PC-3 cells in normal saline was subcutaneously injected in the flanks of female SCID mice. The animals were kept under aseptic conditions and 2-3 weeks later developed well-palpable tumors at the inoculation site (80-150 mg).
# On the day of the experiment, the selected radiopeptide was injected in the tail vein of tumor-bearing mice as a 100 μL bolus (1-2 μCi, 10 pmol total peptide; in saline/EtOH 9/1 v/v). Animals were sacrificed in groups of four under a mild ether anesthesia by cardiac puncture at predetermined time points pi (postinjection). Additional sets of three to four animals were co-injected with excess [Tyr^4]BBN (≈40 nmol) along with test radiopeptide and were sacrificed at 4 h pi (blocked animals). Samples of blood and tissues of interest were immediately collected, weighed and measured for radioactivity in a γ-counter. Stomach and intestines were not emptied of their contents, but measured as collected. Biodistribution data were calculated as percent injected dose per gram tissue (% ID/g) using the Microsoft Excel program with the aid of suitable standards of the injected dose.
molecule,measurement,setting,value
[^99mTc—N4′]DPhe-Gln-Trp-Ala-Val-Gly-His-Leu-NHEt [[99mTc]Demobesin 1],body and pancreas clearance,"malignant lesions; human, in vivo",rapid
same,in vivo stability,"malignant lesions; human, in vivo",rather good
same,tolerability,"malignant lesions; human, in vivo",excellent tolerability
same,retention in malignant lesions compared to radiolabeled BBN-like agonists,malignant lesions; humans,insufficient retention
same,tumor accumulation versus bombesin-based agonists ([99mTc]Demobesin 3-6),[1]; mice bearing PC-3 xenografts,significantly higher tumor accumulation
same,clearance from the body of mice and the pancreas,"[1]; mouse, in vivo",cleared very rapidly
"CC(C)CC(CC(C)C)NC(=O)[C@H](Cc1cnc[nH]1)NC(=O)CNC(=O)[C@@H](NC(=O)[C@H](C)NC(=O)[C@H](Cc1c[nH]c2ccccc12)NC(=O)[C@H](CCC(N)=O)NC(=O)[C@@H](Cc1ccccc1)NC(=O)COCC(=O)Nc1ccc(CNC(=O)CN2CCN(CC(=O)O)CCN(CC(=O)O)CCN(CC(=O)O)CC2)cc1)C(C)C [[67Ga]NeoBOMB-1] [^67Ga-DOTA-(p-aminobenzylamine-diglycolic acid)-[DPhe^6,His^12-CO—NH—CH[(CH2CH(CH3)2]2,des-Leu^3, des-Met^4]BBN(6-14), metal not drawn]",percentage of parent peptide remaining intact,[2],> 97%
CC(C)CC(CC(C)C)NC(=O)[C@H](Cc1cnc[nH]1)NC(=O)CNC(=O)[C@@H](NC(=O)[C@H](C)NC(=O)[C@H](Cc1c[nH]c2ccccc12)NC(=O)[C@H](CCC(N)=O)NC(=O)[C@@H](Cc1ccccc1)NC(=O)COCC(=O)Nc1ccc(CNC(=O)C2C[N]3CC[NH][Tc]34(=[O])(=[O])[NH]CC[N]4C2)cc1)C(C)C (some centres unmarked) [[99mTc]NeoBOMB-2],uptake in PC-3 tumor,PC-3 tumors (hGRPR+); 1 h pi,~30 % ID/g
same,uptake in PC-3 tumor,PC-3 tumors (hGRPR+); 4 h pi,~30 % ID/g
same,uptake in PC-3 tumor,PC-3 tumors (hGRPR+); 24 h pi,> 25 % ID/g
same,percentage of parent peptide remaining intact,[2],> 88%
"CC(C)CC(CC(C)C)NC(=O)[C@H](Cc1cnc[nH]1)NC(=O)CNC(=O)[C@@H](NC(=O)[C@H](C)NC(=O)[C@H](Cc1c[nH]c2ccccc12)NC(=O)[C@H](CCC(N)=O)NC(=O)[C@@H](Cc1ccccc1)NC(=O)COCC(=O)Nc1ccc(CNC(=O)CN2CCN(CC(=O)O)CCN(CC(=O)O)CCN(CC(=O)O)CC2)cc1)C(C)C [[111In]NeoBOMB-1] [^111In-DOTA-(p-aminobenzylamine-diglycolic acid)-[DPhe^6,His^12-CO—NH—CH[(CH2CH(CH3)2)2,des-Leu^13,des-Met^14]BBN(6-14), metal not drawn]",tumor uptake after co-injection of excess [Tyr4]BBN (in vivo receptor blockade),"PC-3 tumors (hGRPR+); 4 h pi, excess [Tyr4]BBN (100 μg)",significantly reduced
same,uptake in PC-3 tumor,PC-3 tumors (hGRPR+); 4 h pi,28.6±6.0 % ID/g
same,uptake in PC-3 tumor,PC-3 tumors (hGRPR+); 24 h pi,25.9±6.6 % ID/g
same,percentage of parent peptide remaining intact,[2],> 91%
"CC(C)CC(CC(C)C)NC(=O)[C@H](Cc1cnc[nH]1)NC(=O)CNC(=O)[C@@H](NC(=O)[C@H](C)NC(=O)[C@H](Cc1c[nH]c2ccccc12)NC(=O)[C@H](CCC(N)=O)NC(=O)[C@@H](Cc1ccccc1)NC(=O)COCC(=O)Nc1ccc(CNC(=O)CN2CCN(CC(=O)O)CCN(CC(=O)O)CCN(CC(=O)O)CC2)cc1)C(C)C [[177Lu]NeoBOMB-1] [^177Lu-DOTA-(p-aminobenzylamine-diglycolic acid)-[DPhe^6,His^12-CO—NH—CH[(CH2CH(CH3)2]2,des-Leu^13,des-Met^14]BBN(6-14), metal not drawn]",tumor-to-pancreas ratios over time,"PC-3 tumors (hGRPR+); 4, 24 and 72 h pi, especially at 72 h pi",increasingly higher tumor-to-pancreas ratios
same,percentage of parent peptide remaining intact,[2],> 92%
